Measurements reported in patent US20170157051A1, “SOLUBILITY ENHANCEMENT FOR HYDROPHOBIC DRUGS” (Freund Pharmatec Ltd., priority 2013, published 2017).
Like-named read-outs stand apart in the source and are kept apart here.

Columns and labels:
[1] = cited from earlier work
[2] = Dissolution profile in biorelevant media (FaSSIF / FaSSGF), paddle apparatus; format: physicochemical; settings: FaSSIF (fenofibrate, nifedipine, nimodipine, nabumetone) or FaSSGF (ibuprofen, gemfibrozil); 900 ml, 37° C., 75 rpm
Description: Dissolution profile: The drug release profiles of the above formulations and the reference products (TRICOR ® 48 mg Fenofibrated tablets and Buplex® 200 mg Ibuprofen tablets) was tested in biorelevant dissolution media; using Fasted State Simulated Intestinal Fluid (FaSSIF) for Tricor® and Fasted State Simulated Gastric Fluid (FaSSGF) for Buplex®. USP […] (Paddle) was used.
Media temperature: 37° C.;
Paddle rotation speed: 75 rpm;
The method used to measure the dissolution rate is as described under ‘dissolution profile’ in the previous example. […] All other conditions remained the same.

Compound: COc1ccc2cc(CCC(C)=O)ccc2c1 [Nabumetone]
- solubility in water (in words) [1]: practically insoluble in water

Compound: Cc1ccc(C)c(OCCCC(C)(C)C(=O)O)c1 [Gemfibrozil]
- solubility in water ([1]; at 25° C.): < 1000 µg/mL

Compound: CC(C)Cc1ccc(C(C)C(=O)O)cc1 (stereo not shown) [Ibuprofen, iso-butyl-propanoic-phenolic acid]
- % drug dissolved / rate and extent of dissolution versus marketed product [2]: 1:2.7 ratio of Maisine:Kolliphor showed higher dissolution than a 1:1.8 ratio
- solubility in water [1]: Less than 1 mg/ml
